Assay results: ChEMBL document CHEMBL1138441, “3-Benzyl-1,3-oxazolidin-2-ones as mGluR2 positive allosteric modulators: Hit-to lead and lead optimization” (Bioorg Med Chem Lett, 2009)

Legend:
[1] = Plasma concentration in mouse at 10 mg/kg, sc after 2 hrs; type: ADME, organism-based; design: dose 10 mg/kg, route subcutaneous; conditions: read-out: Drug uptake
[2] = Ratio of drug level in mouse brain to plasma at 10 mg/kg, sc after 2 hrs; type: ADME, organism-based; design: dose 10 mg/kg, route subcutaneous
[3] = Volume of distribution at steady state in rat at 1 mg/kg, iv; type: ADME, organism-based; design: dose 1 mg/kg, route intravenous; conditions: in vivo, read-out: Vdss
[4] = Drug level in mouse brain at 10 mg/kg, sc after 2 hrs; type: ADME, organism-based; design: dose 10 mg/kg, route subcutaneous; conditions: read-out: Drug uptake
[5] = Oral bioavailability in rat at 10 mg/kg; type: ADME, organism-based; conditions: in vivo
[6] = Plasma concentration in mouse at > 32 mg/kg, sc after 30 mins; type: ADME, organism-based; design: dose 32 mg/kg, route subcutaneous; conditions: read-out: Drug uptake
[7] = Oral bioavailability in rat at 3 mg/kg; type: ADME, organism-based; conditions: in vivo
[8] = Drug level in mouse brain at > 32 mg/kg, sc after 30 mins; type: ADME, organism-based; design: dose 32 mg/kg, route subcutaneous; conditions: read-out: Drug uptake
[9] = Permeability from apical to basolateral side of MDCK cells at 2 uM by MS based assay; type: ADME, cell-based, Canis lupus familiaris; conditions: dog
[10] = Ratio of drug level in mouse brain to plasma at > 32 mg/kg, sc after 30 mins; type: ADME, organism-based; design: dose 32 mg/kg, route subcutaneous

| concentration at 2 h [1] | Kp at 2 h [2] | Vd [3] | concentration at 2 h [4] | bioavailability [5] | concentration at 0.5 h [6] | bioavailability [7] | concentration at 0.5 h [8] | Papp A→B at 2 µM [9] | Kp at 0.5 h [10] | Compound |
| --- | --- | --- | --- | --- | --- | --- | --- | --- | --- | --- |
| 750 ng/mL | 3.7 | 3.2 L/kg | 2750 ng/g | 64% |  |  |  |  |  | C[C@@H]1CN(Cc2ccc(-c3ccc(F)c(Cl)c3)cc2)C(=O)O1 |
| 1070 ng/mL | 2.1 |  | 2230 ng/g |  |  |  |  |  |  | C[C@@H]1CN(Cc2ccc(-c3ccc(F)cc3F)cc2)C(=O)O1 |
|  |  | 4.7 L/kg |  |  | 3550 ng/mL | 100% | 10100 ng/g |  |  | C[C@@H]1CN(Cc2ccc(-c3ccc(OC(F)(F)F)cc3F)nc2)C(=O)O1 |
|  |  |  |  |  |  |  |  | 12.3 ×10⁻⁶ cm/s | 3 | CC(Oc1ccc(CN2C[C@@H](C)OC2=O)cc1)C1CCCCC1 (single isomer, unassigned) |
